In patent US10112940B2, “Histone demethylase inhibitors” (Celgene Quanticel Research, Inc., priority 2014, dated 2018):

What was measured:
[1] = test system: KYSE-150 esophageal carcinoma cell line; assay: In vitro cell-based assay: BrdU incorporation cell proliferation ELISA; design: species or system human; details: Homo sapiens, KYSE-150 cells, 168 hours compound incubation, read-out: Cellular IC50
Procedure: Cell lines tested include the JMJD2C gene amplified cell line KYSE-150. This is a quantitative ELISA assay measuring DNA incorporation of BrdU during S-phase as a direct readout of cellular proliferation.
Assay Principle: This is a colorimetric immunoassay for the quantification of cell proliferation. Cells treated for 168 hours with test compounds are assayed for their ability to go through S-phase as a measure of their proliferative potential.
Assay Method: The human KYSE-150 (SMAD4 mut, TP53 mut) esophageal carcinoma cell line was seeded at 2,000 cells/well on a 96-well tissue culture treated plate. After an overnight incubation, cells were treated with compound in an 11-point dilution series with final concentrations ranging from 100 μM to 2 nM. Cells were then incubated in the presence of compound for 168 hours. After compound incubation the cells were assayed using a BrdU Cell Proliferation ELISA (Roche). The cells were first incubated with BrdU labeling reagent for 2 hours. After 2 hours, the BrdU incorporated cells were fixed and denatured, probed with an anti-BrdU-Peroxidase antibody for 1.5 hours and washed. Finally, a tetramethylbenzidine peroxidase substrate was added to each well for 15 minutes followed by a H2SO4 stop solution. The plate was read at 450 nm, and the raw optical density data was transferred into XLFit (IDBS) for IC50 calculation using the formula: fit=(D+((Vmax*(x^n))/((x^n)+(Km^n))))
Table 4 provides the cellular IC50 values of various compounds disclosed herein.

JMJD2C = JMJD2C (Homo sapiens (Human), UniProt Q9H3R0); assay: JMJD2C in vitro enzyme inhibition assay (TR-FRET); format: biochemical; details: 0.3 nM JMJD2C, 300 nM H3K9me3-biotin peptide, 2 μM alpha-ketoglutaric acid, 30 minutes
Chain of JMJD2C (Q9H3R0 2-372): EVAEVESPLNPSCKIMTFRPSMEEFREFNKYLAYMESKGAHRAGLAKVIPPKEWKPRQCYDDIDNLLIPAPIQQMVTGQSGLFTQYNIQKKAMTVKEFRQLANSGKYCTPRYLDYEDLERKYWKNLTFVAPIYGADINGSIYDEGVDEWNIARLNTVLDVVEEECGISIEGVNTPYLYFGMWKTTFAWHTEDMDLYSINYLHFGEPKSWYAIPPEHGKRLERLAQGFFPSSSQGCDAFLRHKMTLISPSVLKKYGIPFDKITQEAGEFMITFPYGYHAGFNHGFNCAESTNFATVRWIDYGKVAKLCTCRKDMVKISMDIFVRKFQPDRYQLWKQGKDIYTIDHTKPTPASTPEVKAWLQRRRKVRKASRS
Procedure: This assay determines the ability of a test compound to inhibit JMJD2C demethylase activity. Baculovirus expressed JMJD2C (GenBank Accession #BC143571, AA 2-372) was purchased from BPS Bioscience (Cat#50105).
The ability of test compounds to inhibit the activity of JMJD2C was determined in 384-well plate format under the following reaction conditions: 0.3 nM JMJD2C, 300 nM H3K9me3-biotin labeled peptide (Anaspec cat #64360), 2 μM alpha-ketoglutaric acid in assay buffer of 50 mM HEPES, pH7.3, 0.005% Brij35, 0.5 mM TCEP, 0.2 mg/ml BSA, 50 μM sodium L-ascorbate, and 2 μM ammonium iron(II) sulfate. Reaction product was determined quantitatively by TR-FRET after the addition of detection reagent Phycolink Streptavidin-allophycocyanin (Prozyme) and Europium-anti-di-methylated histone H3 lysine 9 (H3K9me2) antibody (PerkinElmer) in the presence of 5 mM EDTA in LANCE detection buffer (PerkinElmer) at a final concentration of 50 nM and 1 nM, respectively.
The assay reaction was initiated by the following: 2 μl of the mixture of 900 nM H3K9me3-biotin labeled peptide and 6 μM alpha-ketoglutaric acid with 2 μl of 11-point serial diluted inhibitor in 3% DMSO were added to each well of the plate, followed by the addition of 2 μl of 0.9 nM JMJD2C to initiate the reaction. The reaction mixture was incubated at room temperature for 30 minutes, and terminated by the addition of 6 μl of 5 mM EDTA in LANCE detection buffer containing 100 nM Phycolink Streptavidin-allophycocyanin and 2 nM Europium-anti-H3K9me2 antibody. Plates were read by EnVisionMultilabel Reader in TR-FRET mode (excitation at 320 nm, emission at 615 nm and 665 nm) after 1 hour incubation at room temperature. A ratio was calculated (665/615) for each well and fitted to determine inhibition constant (IC50).
The ability of the compounds disclosed herein to inhibit demethylase activity was quantified and the respective IC50 value was determined. Table 3 provides the IC50 values of various compounds disclosed herein.

| IC50 [1] | IC50 (JMJD2C) | SMILES |
| --- | --- | --- |
| ≤ 100 nM | 1000 to 10000 nM | CC(C)COc1ccc(N(C)c2ccc(Oc3nc(O)c4ccncc4n3)cc2)cc1 [Example 74, 2-[4-[N-methyl-4-(2-methylpropoxy)anilino]phenoxy]pyrido[3,4-d]pyrimidin-4-ol] |
| ≤ 100 nM | 1000 to 10000 nM | CN(c1ccc(OCC(C)(C)C)cc1)c1ccc(Oc2nc(O)c3ccncc3n2)cc1 [Example 75, 2-[4-[4-(2,2-dimethylpropoxy)-N-methylanilino]phenoxy]pyrido[3,4-d]pyrimidin-4-ol] |
| ≤ 100 nM | 1000 to 10000 nM | CN(c1ccc(CC2CC2)cc1)c1ccc(Oc2nc(O)c3ccncc3n2)cc1 [Example 76, 2-[4-[4-(cyclopropylmethyl)-N-methylanilino]phenoxy]pyrido[3,4-d]pyrimidin-4-ol] |
| ≤ 100 nM | 1000 to 10000 nM | CC[C@H](C)c1ccc(N(C)c2ccc(Oc3nc(O)c4ccncc4n3)cc2)cc1 [Example 77, 2-[4-[4-[(2S)-butan-2-yl]-N-methylanilino]phenoxy]pyrido[3,4-d]pyrimidin-4-ol] |
| ≤ 100 nM | 1000 to 10000 nM | CC[C@@H](C)c1ccc(N(C)c2ccc(Oc3nc(O)c4ccncc4n3)cc2)cc1 [Example 78, 2-[4-[4-[(2R)-butan-2-yl]-N-methylanilino]phenoxy]pyrido[3,4-d]pyrimidin-4-ol] |
| ≤ 100 nM | ≤ 100 nM | CN1CCN(c2cccc(N(C)c3ccc(Oc4nc(O)c5ccncc5n4)cc3)c2)CC1 [Example 79, 2-[4-[N-methyl-3-(4-methylpiperazin-1-yl)anilino]phenoxy]pyrido[3,4-d]pyrimidin-4-ol] |
| 100 to 1000 nM | 100 to 1000 nM | CCN(c1ccccc1)c1ccc(Oc2nc(O)c3ccncc3n2)cc1 [Example 80, 2-[4-(N-ethylanilino)phenoxy]pyrido[3,4-d]pyrimidin-4-ol] |
| > 10000 nM | 100 to 1000 nM | CN(c1ccc(C#N)cc1)c1ccc(Oc2nc(O)c3ccncc3n2)cc1 [Example 81, 4-[4-(4-hydroxypyrido[3,4-d]pyrimidin-2-yl)oxy-N-methylanilino]benzonitrile] |
| > 10000 nM | 100 to 1000 nM | CN(c1ccc(Oc2nc(O)c3ccncc3n2)cc1)c1ccc2nn(C)cc2c1 [Example 82, 2-[4-[methyl-(2-methylindazol-5-yl)amino]phenoxy]pyrido[3,4-d]pyrimidin-4-ol] |
| 100 to 1000 nM | 1000 to 10000 nM | Cc1ccc(N(C)c2ccc(Oc3nc(O)c4ccncc4n3)cc2)cc1C [Example 83, 2-[4-(N,3,4-trimethylanilino)phenoxy]pyrido[3,4-d]pyrimidin-4-ol] |
| ≤ 100 nM | 100 to 1000 nM | CCc1ccc(N(C)c2ccc(Oc3nc(O)c4ccncc4n3)cc2)cc1 [Example 84, 2-[4-(4-ethyl-N-methylanilino)phenoxy]pyrido[3,4-d]pyrimidin-4-ol] |
| ≤ 100 nM | 1000 to 10000 nM | CC(C)c1ccc(N(C)c2ccc(Oc3nc(O)c4ccncc4n3)cc2)cc1 [Example 85, 2-[4-(N-methyl-4-propan-2-ylanilino)phenoxy]pyrido[3,4-d]pyrimidin-4-ol] |
| 100 to 1000 nM | 1000 to 10000 nM | CN(c1ccc(Oc2nc(O)c3ccncc3n2)cc1)c1cccc(C(F)(F)F)c1 [Example 86, 2-[4-[N-methyl-3-(trifluoromethyl)anilino]phenoxy]pyrido[3,4-d]pyrimidin-4-ol] |
| 100 to 1000 nM | 1000 to 10000 nM | CN(c1ccc(Oc2nc(O)c3ccncc3n2)cc1)c1ccc(C(F)(F)F)cc1 [Example 87, 2-[4-[N-methyl-4-(trifluoromethyl)anilino]phenoxy]pyrido[3,4-d]pyrimidin-4-ol] |

The remaining lines, values behind:

| SMILES | IC50 [1] | IC50 (JMJD2C) |
| --- | --- | --- |
| CN(c1ccc(Oc2nc(O)c3ccncc3n2)cc1)c1cccc(N2CCCC(N)C2)c1 (stereo not shown) [Example 58, 2-[4-[3-(3-aminopiperidin-1-yl)-N-methylanilino]phenoxy]pyrido[3,4-d]pyrimidin-4-ol] | > 10000 nM | ≤ 100 nM |
| CCc1ccc(N(C)c2ccc(Oc3nc(O)c4ccncc4n3)cc2)cc1N1CCOCC1 [Example 59, 2-[4-(4-ethyl-N-methyl-3-morpholin-4-ylanilino)phenoxy]pyrido[3,4-d]pyrimidin-4-ol] | > 10000 nM | ≤ 100 nM |
| CCc1ccc(N(C)c2ccc(Oc3nc(O)c4ccncc4n3)cc2)cc1N1CCN(C)CC1 [Example 60, 2-[4-[4-ethyl-N-methyl-3-(4-methylpiperazin-1-yl)anilino]phenoxy]pyrido[3,4-d]pyrimidin-4-ol] | > 10000 nM | ≤ 100 nM |
| CN(c1ccc(Oc2nc(O)c3ccncc3n2)cc1)c1ccnc(N2CCOCC2)c1 [Example 61, 2-[4-[methyl-(2-morpholin-4-ylpyridin-4-yl)amino]phenoxy]pyrido[3,4-d]pyrimidin-4-ol] | > 10000 nM | ≤ 100 nM |
| CN(CC1CCc2ccccc21)c1ccc(Oc2nc(O)c3ccncc3n2)cc1 (stereo not shown) [Example 62, 2-[4-[2,3-dihydro-1H-inden-1-ylmethyl(methyl)amino]phenoxy]pyrido[3,4-d]pyrimidin-4-ol] | 1000 to 10000 nM | 100 to 1000 nM |
| CN(c1ccc(Oc2nc(O)c3ccncc3n2)cc1)c1ccc(C(C)(C)O)cc1 [Example 64, 2-[4-[4-(2-hydroxypropan-2-yl)-N-methylanilino]phenoxy]pyrido[3,4-d]pyrimidin-4-ol] | 100 to 1000 nM | 100 to 1000 nM |
| CCc1ccc(N(C)c2ccc(Oc3nc(O)c4ccncc4n3)cc2)cc1OCCN(C)C [Example 65, 2-[4-[3-[2-(dimethylamino)ethoxy]-4-ethyl-N-methylanilino]phenoxy]pyrido[3,4-d]pyrimidin-4-ol] | > 10000 nM | ≤ 100 nM |
| CCc1ccc(N(C)c2ccc(Oc3nc(O)c4ccncc4n3)cc2)cc1OCCOC [Example 66, 2-[4-[4-ethyl-3-(2-methoxyethoxy)-N-methylanilino]phenoxy]pyrido[3,4-d]pyrimidin-4-ol] | 1000 to 10000 nM | 1000 to 10000 nM |
| COCC(C)(C)c1ccc(N(C)c2ccc(Oc3nc(O)c4ccncc4n3)cc2)cc1 [Example 67, 2-[4-[4-(1-methoxy-2-methylpropan-2-yl)-N-methylanilino]phenoxy]pyrido[3,4-d]pyrimidin-4-ol] | ≤ 100 nM | 1000 to 10000 nM |
| CN(c1ccc(Oc2nc(O)c3ccncc3n2)cc1)c1ccc(C(C)(C)CO)cc1 [Example 68, 2-[4-[4-(1-hydroxy-2-methylpropan-2-yl)-N-methylanilino]phenoxy]pyrido[3,4-d]pyrimidin-4-ol] | 100 to 1000 nM | 100 to 1000 nM |
| CCCc1ccc(N(C)c2ccc(Oc3nc(O)c4ccncc4n3)cc2)cc1 [Example 69, 2-[4-(N-methyl-4-propylanilino)phenoxy]pyrido[3,4-d]pyrimidin-4-ol] | ≤ 100 nM | 1000 to 10000 nM |
| CNCC(C)c1ccc(N(C)c2ccc(Oc3nc(O)c4ccncc4n3)cc2)cc1 (stereo not shown) [Example 70, 2-[4-[N-methyl-4-[1-(methylamino)propan-2-yl]anilino]phenoxy]pyrido[3,4-d]pyrimidin-4-ol] | > 10000 nM | ≤ 100 nM |
| CC(CCN)c1ccc(N(C)c2ccc(Oc3nc(O)c4ccncc4n3)cc2)cc1 (stereo not shown) [Example 71, 2-[4-[4-(4-aminobutan-2-yl)-N-methylanilino]phenoxy]pyrido[3,4-d]pyrimidin-4-ol] | 1000 to 10000 nM | ≤ 100 nM |
| CNCCC(C)c1ccc(N(C)c2ccc(Oc3nc(O)c4ccncc4n3)cc2)cc1 (stereo not shown) [Example 72, 2-[4-[N-methyl-4-[4-(methylamino)butan-2-yl]anilino]phenoxy]pyrido[3,4-d]pyrimidin-4-ol] | > 10000 nM | ≤ 100 nM |
| CN(c1ccc(OCC(F)(F)F)cc1)c1ccc(Oc2nc(O)c3ccncc3n2)cc1 [Example 73, 2-[4-[N-methyl-4-(2,2,2-trifluoroethoxy)anilino]phenoxy]pyrido[3,4-d]pyrimidin-4-ol] | ≤ 100 nM | 100 to 1000 nM |
